Experimental data as given in ChEMBL document CHEMBL3885861, “Open TG-GATES”.

Species on record: Rattus norvegicus
Assay: Open TG-GATES - Regimen: Daily Repeat
Format: toxicity, organism-based, Sprague-Dawley
Parameters: regimen Daily Repeat, gender Male, age 6 weeks
Details: in vivo, iv, route intravenous injection; for APTT / Bas / Eos / Fbg / Hb / Ht / Lym / MCH / MCHC / MCV / Mono / Neu / PT / Plat / RBC / Ret / WBC: tissue Blood; for KIDNEY_L / KIDNEY_R / KIDNEY_TOTAL: tissue Kidney; for LIVER: tissue Liver; for ALP / ALT / AST / BUN / CRE / Ca / Cl / DBIL / GLC / IP / K / LDH / Na / PL / RALB / TBIL / TC / TG / TP / gamma-GTP: tissue Plasma
[1] = 1000 mg/kg, 72 h, dose level Middle, time 3 day
[2] = 1000 mg/kg, […], dose level Middle, time 7 day
[3] = 1000 mg/kg, […], dose level Middle, time 14 day
[4] = 1000 mg/kg, […], dose level Middle, time 28 day
[5] = 2000 mg/kg, 72 h, dose level High, time 3 day
[6] = 2000 mg/kg, […], dose level High, time 7 day
[7] = 2000 mg/kg, […], dose level High, time 14 day
[8] = 2000 mg/kg, […], dose level High, time 28 day

CC(=O)OCC1=C(C(=O)O)N2C(=O)[C@@H](NC(=O)Cc3cccs3)[C@H]2SC1 [CEPHALOTHIN]
TERMINAL_BW [1]: 236.8 g
APTT [1]: 22.6 s
Bas [1]: 0%
Eos [1]: 1%
Fbg [1]: 308.4 mg/dL
Hb [1]: 13.4 g/dL
Ht [1]: 38.7%
Lym [1]: 87.2%
MCH [1]: 21.3 pg
MCHC [1]: 34.7%
MCV [1]: 61.6 fL
Mono [1]: 2.6%
Neu [1]: 8.2%
PT [1]: 16 s
Plat [1]: 120.2 x10_4/uL
RBC [1]: 630.2 x10_4/ul
Ret [1]: 5%
WBC [1]: 80.1 x10_2/uL
KIDNEY_L [1]: 1 g
KIDNEY_R [1]: 1 g
KIDNEY_TOTAL [1]: 2 g
LIVER [1]: 10.2 g
ALP [1]: 1638.6 IU/L
ALT [1]: 44.6 IU/L
AST [1]: 71.2 IU/L
BUN [1]: 18 mg/dL
CRE [1]: 0.2 mg/dL
Ca [1]: 10.6 mg/dL
Cl [1]: 105.2 meq/L
DBIL [1]: 0 mg/dL
GLC [1]: 160 mg/dL
IP [1]: 7.1 mg/dL
K [1]: 4.5 meq/L
LDH [1]: 147.8 IU/L
Na [1]: 141.2 meq/L
PL [1]: 141.6 mg/dL
RALB [1]: 3 g/dL
TBIL [1]: 0.008 mg/dL
TC [1]: 85.2 mg/dL
TG [1]: 65.8 mg/dL
TP [1]: 5.5 g/dL
gamma-GTP [1]: 1.4 IU/L
TERMINAL_BW [2]: 261.5 g
TERMINAL_BW [3]: 302.8 g
TERMINAL_BW [4]: 376.7 g
APTT [2]: 21.6 s
Bas [2]: 0%
Eos [2]: 1.2%
Fbg [2]: 323 mg/dL
Hb [2]: 13.2 g/dL
Ht [2]: 38%
Lym [2]: 87.2%
MCH [2]: 20.7 pg
MCHC [2]: 34.8%
MCV [2]: 59.3 fL
Mono [2]: 2.2%
Neu [2]: 9%
PT [2]: 17 s
Plat [2]: 135.9 x10_4/uL
RBC [2]: 640.6 x10_4/ul
Ret [2]: 5.5%
WBC [2]: 90.6 x10_2/uL
APTT [3]: 23.4 s
Bas [3]: 0%
Eos [3]: 0.8%
Fbg [3]: 260.8 mg/dL
Hb [3]: 13.9 g/dL
Ht [3]: 39%
Lym [3]: 89.2%
MCH [3]: 20.2 pg
MCHC [3]: 35.6%
MCV [3]: 56.6 fL
Mono [3]: 2.2%
Neu [3]: 6.8%
PT [3]: 16.2 s
Plat [3]: 123.9 x10_4/uL
RBC [3]: 689.8 x10_4/ul
Ret [3]: 5%
WBC [3]: 109.6 x10_2/uL
APTT [4]: 24.8 s
Bas [4]: 0%
Eos [4]: 1.4%
Fbg [4]: 294.4 mg/dL
Hb [4]: 14.9 g/dL
Ht [4]: 40.5%
Lym [4]: 88.2%
MCH [4]: 19.6 pg
MCHC [4]: 36.8%
MCV [4]: 53.1 fL
Mono [4]: 1.8%
Neu [4]: 7.6%
PT [4]: 16.2 s
Plat [4]: 113.8 x10_4/uL
RBC [4]: 762.8 x10_4/ul
Ret [4]: 2.8%
WBC [4]: 98 x10_2/uL
KIDNEY_L [2]: 1.1 g
KIDNEY_R [2]: 1.1 g
KIDNEY_TOTAL [2]: 2.3 g
KIDNEY_L [3]: 1.2 g
KIDNEY_R [3]: 1.3 g
KIDNEY_TOTAL [3]: 2.5 g
KIDNEY_L [4]: 1.4 g
KIDNEY_R [4]: 1.4 g
KIDNEY_TOTAL [4]: 2.8 g
LIVER [2]: 12.2 g
LIVER [3]: 12.7 g
LIVER [4]: 14.6 g
ALP [2]: 1283 IU/L
ALT [2]: 35.4 IU/L
AST [2]: 64.4 IU/L
BUN [2]: 16.2 mg/dL
CRE [2]: 0.2 mg/dL
Ca [2]: 11 mg/dL
Cl [2]: 105.4 meq/L
DBIL [2]: 0.002 mg/dL
GLC [2]: 171.8 mg/dL
IP [2]: 7.3 mg/dL
K [2]: 4.2 meq/L
LDH [2]: 148.4 IU/L
Na [2]: 141.6 meq/L
PL [2]: 134.6 mg/dL
RALB [2]: 3 g/dL
TBIL [2]: 0.02 mg/dL
TC [2]: 70.4 mg/dL
TG [2]: 94.6 mg/dL
TP [2]: 5.6 g/dL
gamma-GTP [2]: 1.8 IU/L
ALP [3]: 1231.6 IU/L
ALT [3]: 35.2 IU/L
AST [3]: 66.4 IU/L
BUN [3]: 15.6 mg/dL
CRE [3]: 0.2 mg/dL
Ca [3]: 10.5 mg/dL
Cl [3]: 106 meq/L
DBIL [3]: 0 mg/dL
GLC [3]: 170.2 mg/dL
IP [3]: 6.7 mg/dL
K [3]: 4.2 meq/L
LDH [3]: 96.2 IU/L
Na [3]: 140.6 meq/L
PL [3]: 143 mg/dL
RALB [3]: 3 g/dL
TBIL [3]: 0.01 mg/dL
TC [3]: 73.6 mg/dL
TG [3]: 109.8 mg/dL
TP [3]: 5.6 g/dL
gamma-GTP [3]: 2.4 IU/L
ALP [4]: 1075.4 IU/L
ALT [4]: 31 IU/L
AST [4]: 62 IU/L
BUN [4]: 16.6 mg/dL
CRE [4]: 0.2 mg/dL
Ca [4]: 10.4 mg/dL
Cl [4]: 106.6 meq/L
DBIL [4]: 0.004 mg/dL
GLC [4]: 175.4 mg/dL
IP [4]: 5.9 mg/dL
K [4]: 4.2 meq/L
LDH [4]: 148 IU/L
Na [4]: 142.4 meq/L
PL [4]: 135.4 mg/dL
RALB [4]: 3.1 g/dL
TBIL [4]: 0.018 mg/dL
TC [4]: 67.6 mg/dL
TG [4]: 116.4 mg/dL
TP [4]: 5.9 g/dL
gamma-GTP [4]: 1.2 IU/L
TERMINAL_BW [5]: 233 g
APTT [5]: 22.3 s
Bas [5]: 0%
Eos [5]: 1.2%
Fbg [5]: 311.4 mg/dL
Hb [5]: 13.7 g/dL
Ht [5]: 38.7%
Lym [5]: 87.2%
MCH [5]: 21.3 pg
MCHC [5]: 35.3%
MCV [5]: 60.3 fL
Mono [5]: 2.2%
Neu [5]: 9%
PT [5]: 16.2 s
Plat [5]: 128.7 x10_4/uL
RBC [5]: 642 x10_4/ul
Ret [5]: 4.9%
WBC [5]: 71.5 x10_2/uL
KIDNEY_L [5]: 1 g
KIDNEY_R [5]: 1 g
KIDNEY_TOTAL [5]: 2.1 g
LIVER [5]: 10.2 g
ALP [5]: 1558.6 IU/L
ALT [5]: 43 IU/L
AST [5]: 72.2 IU/L
BUN [5]: 17.6 mg/dL
CRE [5]: 0.2 mg/dL
Ca [5]: 10.4 mg/dL
Cl [5]: 106 meq/L
DBIL [5]: 0.004 mg/dL
GLC [5]: 173.6 mg/dL
IP [5]: 7.5 mg/dL
K [5]: 4.4 meq/L
LDH [5]: 152.4 IU/L
Na [5]: 141.6 meq/L
PL [5]: 132.8 mg/dL
RALB [5]: 3.1 g/dL
TBIL [5]: 0.03 mg/dL
TC [5]: 80.6 mg/dL
TG [5]: 40.4 mg/dL
TP [5]: 5.5 g/dL
gamma-GTP [5]: 1.8 IU/L
TERMINAL_BW [6]: 255 g
TERMINAL_BW [7]: 294.7 g
TERMINAL_BW [8]: 341.3 g
APTT [6]: 22.8 s
Bas [6]: 0%
Eos [6]: 0.8%
Fbg [6]: 347.2 mg/dL
Hb [6]: 13.4 g/dL
Ht [6]: 38.1%
Lym [6]: 83.8%
MCH [6]: 20.8 pg
MCHC [6]: 35.1%
MCV [6]: 59.4 fL
Mono [6]: 2.4%
Neu [6]: 12.4%
PT [6]: 16.7 s
Plat [6]: 132.5 x10_4/uL
RBC [6]: 642.8 x10_4/ul
Ret [6]: 6.3%
WBC [6]: 96.8 x10_2/uL
APTT [7]: 23.6 s
Bas [7]: 0%
Eos [7]: 1%
Fbg [7]: 269.2 mg/dL
Hb [7]: 14.4 g/dL
Ht [7]: 40.1%
Lym [7]: 84.6%
MCH [7]: 20.7 pg
MCHC [7]: 35.9%
MCV [7]: 57.5 fL
Mono [7]: 2%
Neu [7]: 12%
PT [7]: 16 s
Plat [7]: 117.3 x10_4/uL
RBC [7]: 695.2 x10_4/ul
Ret [7]: 5%
WBC [7]: 118.2 x10_2/uL
APTT [8]: 24.6 s
Bas [8]: 0%
Eos [8]: 1.6%
Fbg [8]: 283.8 mg/dL
Hb [8]: 15.6 g/dL
Ht [8]: 42.2%
Lym [8]: 84.8%
MCH [8]: 19.6 pg
MCHC [8]: 37%
MCV [8]: 52.9 fL
Mono [8]: 2.4%
Neu [8]: 10.8%
PT [8]: 16.1 s
Plat [8]: 100.5 x10_4/uL
RBC [8]: 797.8 x10_4/ul
Ret [8]: 3.2%
WBC [8]: 103.9 x10_2/uL
KIDNEY_L [6]: 1.1 g
KIDNEY_R [6]: 1.1 g
KIDNEY_TOTAL [6]: 2.2 g
KIDNEY_L [7]: 1.2 g
KIDNEY_R [7]: 1.2 g
KIDNEY_TOTAL [7]: 2.4 g
KIDNEY_L [8]: 1.4 g
KIDNEY_R [8]: 1.4 g
KIDNEY_TOTAL [8]: 2.7 g
LIVER [6]: 12 g
LIVER [7]: 12.9 g
LIVER [8]: 13.8 g
ALP [6]: 1549.6 IU/L
ALT [6]: 42.4 IU/L
AST [6]: 71.2 IU/L
BUN [6]: 19.6 mg/dL
CRE [6]: 0.2 mg/dL
Ca [6]: 10.8 mg/dL
Cl [6]: 107.6 meq/L
DBIL [6]: 0 mg/dL
GLC [6]: 169.2 mg/dL
IP [6]: 7 mg/dL
K [6]: 4.5 meq/L
LDH [6]: 152.8 IU/L
Na [6]: 141.6 meq/L
PL [6]: 138.6 mg/dL
RALB [6]: 3 g/dL
TBIL [6]: 0.008 mg/dL
TC [6]: 69.8 mg/dL
TG [6]: 103.2 mg/dL
TP [6]: 5.6 g/dL
gamma-GTP [6]: 2 IU/L
ALP [7]: 1210 IU/L
ALT [7]: 40.6 IU/L
AST [7]: 72 IU/L
BUN [7]: 18.6 mg/dL
CRE [7]: 0.2 mg/dL
Ca [7]: 10.6 mg/dL
Cl [7]: 106.2 meq/L
DBIL [7]: 0 mg/dL
GLC [7]: 176.8 mg/dL
IP [7]: 6.3 mg/dL
K [7]: 4.3 meq/L
LDH [7]: 142.8 IU/L
Na [7]: 141.4 meq/L
PL [7]: 142.4 mg/dL
RALB [7]: 3.1 g/dL
TBIL [7]: 0.018 mg/dL
TC [7]: 73.6 mg/dL
TG [7]: 110.2 mg/dL
TP [7]: 5.8 g/dL
gamma-GTP [7]: 2.4 IU/L
ALP [8]: 899.6 IU/L
ALT [8]: 38 IU/L
AST [8]: 69.2 IU/L
BUN [8]: 16 mg/dL
CRE [8]: 0.2 mg/dL
Ca [8]: 10.4 mg/dL
Cl [8]: 106.2 meq/L
DBIL [8]: 0.002 mg/dL
GLC [8]: 166.8 mg/dL
IP [8]: 5.6 mg/dL
K [8]: 4.1 meq/L
LDH [8]: 105.2 IU/L
Na [8]: 142.6 meq/L
PL [8]: 129.8 mg/dL
RALB [8]: 3.2 g/dL
TBIL [8]: 0.034 mg/dL
TC [8]: 62.4 mg/dL
TG [8]: 93.8 mg/dL
TP [8]: 6.1 g/dL
gamma-GTP [8]: 1.8 IU/L
